{
  "source": "patent US9212182B2",
  "about": "“Bicyclic sulfonamide compounds as sodium channel inhibitors” (AMGEN INC., priority 2013, dated 2015)",
  "target": "Nav 1.7 (Homo sapiens (Human), UniProt Q15858)",
  "sequence (Q15858 whole entry)": "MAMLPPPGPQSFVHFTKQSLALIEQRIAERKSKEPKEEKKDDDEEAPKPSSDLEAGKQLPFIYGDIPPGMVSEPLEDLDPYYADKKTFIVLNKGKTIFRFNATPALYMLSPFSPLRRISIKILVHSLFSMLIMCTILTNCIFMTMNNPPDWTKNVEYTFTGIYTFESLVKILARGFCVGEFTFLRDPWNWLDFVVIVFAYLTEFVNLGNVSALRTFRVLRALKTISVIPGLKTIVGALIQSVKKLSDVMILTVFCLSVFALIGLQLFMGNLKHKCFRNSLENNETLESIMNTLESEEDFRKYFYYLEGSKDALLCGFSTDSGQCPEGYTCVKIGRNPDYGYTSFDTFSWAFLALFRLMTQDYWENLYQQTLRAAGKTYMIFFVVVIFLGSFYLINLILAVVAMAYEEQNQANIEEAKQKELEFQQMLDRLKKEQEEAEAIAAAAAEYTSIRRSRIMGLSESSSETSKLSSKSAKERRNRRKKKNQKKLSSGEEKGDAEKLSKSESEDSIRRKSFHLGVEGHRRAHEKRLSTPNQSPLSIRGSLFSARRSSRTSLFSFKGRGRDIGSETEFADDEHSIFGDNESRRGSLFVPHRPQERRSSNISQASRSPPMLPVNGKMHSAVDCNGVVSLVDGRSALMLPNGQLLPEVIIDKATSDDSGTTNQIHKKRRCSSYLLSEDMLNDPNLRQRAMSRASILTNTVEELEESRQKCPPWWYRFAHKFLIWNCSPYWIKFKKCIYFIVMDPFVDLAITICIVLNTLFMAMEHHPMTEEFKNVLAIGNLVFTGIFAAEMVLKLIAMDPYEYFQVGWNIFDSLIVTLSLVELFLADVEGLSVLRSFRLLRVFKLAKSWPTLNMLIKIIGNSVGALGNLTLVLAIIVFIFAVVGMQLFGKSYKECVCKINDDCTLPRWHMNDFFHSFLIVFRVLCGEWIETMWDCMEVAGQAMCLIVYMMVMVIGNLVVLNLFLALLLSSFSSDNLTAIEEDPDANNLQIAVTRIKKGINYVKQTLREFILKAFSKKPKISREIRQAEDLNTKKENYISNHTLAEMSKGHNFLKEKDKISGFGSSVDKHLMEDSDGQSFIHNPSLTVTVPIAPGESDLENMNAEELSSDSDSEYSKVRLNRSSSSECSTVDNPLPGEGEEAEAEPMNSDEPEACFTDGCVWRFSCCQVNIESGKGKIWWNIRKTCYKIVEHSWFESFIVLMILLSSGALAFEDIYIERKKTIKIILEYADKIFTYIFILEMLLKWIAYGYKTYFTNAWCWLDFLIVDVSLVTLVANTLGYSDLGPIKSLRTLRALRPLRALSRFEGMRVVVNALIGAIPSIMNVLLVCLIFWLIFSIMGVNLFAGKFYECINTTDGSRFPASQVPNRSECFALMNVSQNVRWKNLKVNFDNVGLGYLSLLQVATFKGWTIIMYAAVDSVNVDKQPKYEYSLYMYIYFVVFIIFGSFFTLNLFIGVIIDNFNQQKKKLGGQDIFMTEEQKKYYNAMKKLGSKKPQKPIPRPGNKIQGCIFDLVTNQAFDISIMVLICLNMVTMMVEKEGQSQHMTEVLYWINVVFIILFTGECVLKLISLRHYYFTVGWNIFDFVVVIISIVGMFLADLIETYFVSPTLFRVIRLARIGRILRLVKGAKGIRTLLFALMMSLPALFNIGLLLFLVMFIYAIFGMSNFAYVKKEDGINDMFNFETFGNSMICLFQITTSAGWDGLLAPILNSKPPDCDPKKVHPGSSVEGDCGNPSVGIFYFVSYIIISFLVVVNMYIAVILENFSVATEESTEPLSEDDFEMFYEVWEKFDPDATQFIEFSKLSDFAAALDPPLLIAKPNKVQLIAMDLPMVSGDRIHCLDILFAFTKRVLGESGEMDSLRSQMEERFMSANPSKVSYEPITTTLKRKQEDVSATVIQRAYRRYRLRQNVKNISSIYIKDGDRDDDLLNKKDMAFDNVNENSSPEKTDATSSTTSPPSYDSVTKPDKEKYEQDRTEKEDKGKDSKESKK",
  "assay": "in-vitro Nav 1.7 PX (IC50)",
  "type": "cell-based",
  "key": {"[1]": {"details": "in-vitro Nav 1.7 PX data (PatchXpress)"}},
  "note": "Read-outs that look alike come from different tables or passages of the source.",
  "data": [
    {"compound": "COc1cc(-c2cccc(F)c2)c(Cl)cc1-n1c(=O)ccc2cc(S(=O)(=O)Nc3ccon3)c(F)cc21", "note": "(atropisomer, axis not shown; (M)) [Example 357, (M)-1-(2-chloro-3′-fluoro-5-methoxy-[1,1′-biphenyl]-4-yl)-7-fluoro-N-(isoxazol-3-yl)-2-oxo-1,2-dihydroquinoline-6-sulfonamide]", "values": [
      {"measurement": "IC50", "value": 40, "unit": "nM"}
    ]},
    {"compound": "COc1cc(-c2cc(F)cc(Cl)c2)ccc1-n1c(=O)ccc2cc(S(=O)(=O)Nc3ccon3)ccc21", "note": "(atropisomer, axis not shown; (P)) [Example 430, (P)-1-(3′-chloro-5′-fluoro-3-methoxy-4-biphenylyl)-N-3-isoxazolyl-2-oxo-1,2-dihydro-6-quinolinesulfonamide]", "values": [
      {"measurement": "IC50", "value": 12, "unit": "nM"}
    ]},
    {"compound": "COc1nc(OC2CCCC2)c(Cl)cc1-n1c(=O)ccc2cc(S(=O)(=O)Nc3ccon3)ccc21", "note": "[Example 825, 1-(5-chloro-6-(cyclopentyloxy)-2-methoxy-3-pyridinyl)-N-3-isoxazolyl-2-oxo-1,2-dihydro-6-quinolinesulfonamide]", "values": [
      {"measurement": "IC50", "setting": "in-vitro Nav 1.7 PX data", "value": 330, "unit": "nM"}
    ]},
    {"compound": "COc1cc(-c2cccc(C(F)(F)F)c2)ccc1-n1c(=O)ccc2cc(S(=O)(=O)Nc3ncco3)ccc21", "note": "[Example 916, 1-(3-methoxy-3′-(trifluoromethyl)-4-biphenylyl)-N-1,3-oxazol-2-yl-2-oxo-1,2-dihydro-6-quinolinesulfonamide]", "values": [
      {"measurement": "IC50", "setting": "in-vitro Nav 1.7 PX data", "value": 50, "unit": "nM"}
    ]},
    {"compound": "COc1cc(-c2ccc(F)cc2)c(F)cc1-n1c(=O)ccc2cc(S(=O)(=O)Nc3ccnc(C)n3)ccc21", "note": "[Example 773, 1-(2,4′-difluoro-5-methoxy-4-biphenylyl)-N-(2-methyl-4-pyrimidinyl)-2-oxo-1,2-dihydro-6-quinolinesulfonamide]", "values": [
      {"measurement": "IC50", "setting": "in-vitro Nav 1.7 PX data", "value": 274, "unit": "nM"}
    ]},
    {"compound": "COc1cc(-c2ccc(C)c(Cl)c2)ccc1-n1c(=O)ccc2cc(S(=O)(=O)Nc3ccon3)ccc21", "note": "(atropisomer, axis not shown; (P)) [Example 587, (P)-1-(3′-chloro-3-methoxy-4′-methyl-4-biphenylyl)-N-3-isoxazolyl-2-oxo-1,2-dihydro-6-quinolinesulfonamide]", "values": [
      {"measurement": "IC50", "value": 20, "unit": "nM"}
    ]},
    {"compound": "COc1nc(C2CC2)c(Cl)cc1-n1c(=O)ccc2cc(S(=O)(=O)Nc3ccon3)ccc21", "note": "(atropisomer, axis not shown; (P)) [Example 1230, (P)-1-(5-chloro-6-cyclopropyl-2-methoxy-3-pyridinyl)-N-3-isoxazolyl-2-oxo-1,2-dihydro-6-quinolinesulfonamide]", "values": [
      {"measurement": "IC50", "value": 472, "unit": "nM"}
    ]},
    {"compound": "COc1cc(Cl)c(-c2cc(F)cc(Cl)c2)cc1-n1c(=O)ccc2cc(S(=O)(=O)Nc3ccon3)ccc21", "note": "[Example 613, 1-(3′,6-dichloro-5′-fluoro-4-methoxy-3-biphenylyl)-N-3-isoxazolyl-2-oxo-1,2-dihydro-6-quinolinesulfonamide]", "values": [
      {"measurement": "IC50", "setting": "in-vitro Nav 1.7 PX data", "value": 18, "unit": "nM"}
    ]},
    {"compound": "COc1cc(-c2ccncc2Cl)c(F)cc1-n1c(=O)ccc2cc(S(=O)(=O)Nc3ccon3)ccc21", "note": "[Example 748, 1-(4-(3-chloro-4-pyridinyl)-5-fluoro-2-methoxyphenyl)-N-3-isoxazolyl-2-oxo-1,2-dihydro-6-quinolinesulfonamide]", "values": [
      {"measurement": "IC50", "setting": "in-vitro Nav 1.7 PX data", "value": 573, "unit": "nM"}
    ]},
    {"compound": "COc1nc(OCc2ccc(F)c(C(F)(F)F)c2)c(Cl)cc1-n1c(=O)ccc2cc(S(=O)(=O)Nc3ccon3)ccc21", "note": "[Example 1215, 1-(5-chloro-6-((4-fluoro-3-(trifluoromethyl)benzyl)oxy)-2-methoxy-3-pyridinyl)-N-3-isoxazolyl-2-oxo-1,2-dihydro-6-quinolinesulfonamide]", "values": [
      {"measurement": "IC50", "value": 24, "unit": "nM"}
    ]},
    {"compound": "COc1cc(-c2cc(Cl)cnc2OC)c(F)cc1-n1c(=O)ccc2cc(S(=O)(=O)Nc3ncc(F)cn3)ccc21", "note": "[Example 774, 1-(4-(5-chloro-2-methoxy-3-pyridinyl)-5-fluoro-2-methoxyphenyl)-N-(5-fluoro-2-pyrimidinyl)-2-oxo-1,2-dihydro-6-quinolinesulfonamide]", "values": [
      {"measurement": "IC50", "setting": "in-vitro Nav 1.7 PX data", "value": 48, "unit": "nM"}
    ]},
    {"compound": "COc1ccc(CC#N)cc1-n1c(=O)ccc2cc(S(=O)(=O)Nc3ccon3)ccc21", "note": "[Example 1146, 1-(5-(cyanomethyl)-2-methoxyphenyl)-N-3-isoxazolyl-2-oxo-1,2-dihydro-6-quinolinesulfonamide]", "values": [
      {"measurement": "IC50", "value": 3590, "unit": "nM"}
    ]},
    {"compound": "COc1cc(-c2cccc(C)c2)ccc1-n1c(=O)ccc2cc(S(=O)(=O)Nc3ccon3)ccc21", "note": "(atropisomer, axis not shown; (P)) [Example 584, (P)-N-3-isoxazolyl-1-(3-methoxy-3′-methyl-4-biphenylyl)-2-oxo-1,2-dihydro-6-quinolinesulfonamide]", "values": [
      {"measurement": "IC50", "value": 13, "unit": "nM"}
    ]},
    {"compound": "COc1cc(CC2CCCCC2)c(F)cc1-n1c(=O)ccc2cc(S(=O)(=O)Nc3cnccn3)ccc21", "note": "[Example 1116, 1-(4-(cyclohexylmethyl)-5-fluoro-2-methoxyphenyl)-2-oxo-N-2-pyrazinyl-1,2-dihydro-6-quinolinesulfonamide]", "values": [
      {"measurement": "IC50", "setting": "in-vitro Nav 1.7 PX data", "value": 30, "unit": "nM"}
    ]},
    {"compound": "COc1cc(-c2ccc(Cl)cc2)ccc1-n1c(=O)ccc2cc(S(=O)(=O)Nc3ncc(F)cn3)ccc21", "note": "[Example 764, 1-(4′-chloro-3-methoxy-4-biphenylyl)-N-(5-fluoro-2-pyrimidinyl)-2-oxo-1,2-dihydro-6-quinolinesulfonamide]", "values": [
      {"measurement": "IC50", "setting": "in-vitro Nav 1.7 PX data", "value": 40, "unit": "nM"}
    ]},
    {"compound": "COc1cc(F)cc(-c2ccc(-n3c(=O)ccc4cc(S(=O)(=O)Nc5ccon5)ccc43)c(OC)c2)c1", "note": "[Example 1018, 1-(3′-fluoro-3,5′-dimethoxy-4-biphenylyl)-N-3-isoxazolyl-2-oxo-1,2-dihydro-6-quinolinesulfonamide]", "values": [
      {"measurement": "IC50", "setting": "in-vitro Nav 1.7 PX data", "value": 13, "unit": "nM"}
    ]},
    {"compound": "COc1cc(-c2cccc(OC(C)C)c2)c(F)cc1-n1c(=O)ccc2cc(S(=O)(=O)Nc3ccon3)ccc21", "note": "[Example 823, 1-(2-fluoro-5-methoxy-3′-(1-methylethoxy)-4-biphenylyl)-N-3-isoxazolyl-2-oxo-1,2-dihydro-6-quinolinesulfonamide]", "values": [
      {"measurement": "IC50", "setting": "in-vitro Nav 1.7 PX data", "value": 25, "unit": "nM"}
    ]},
    {"compound": "COc1cc(-c2ccc(Cl)c(F)c2)ccc1-n1c(=O)ccc2cc(S(=O)(=O)Nc3ccon3)ccc21", "note": "(atropisomer, axis not shown; (P)) [Example 580, (P)-1-(4′-chloro-3′-fluoro-3-methoxy-4-biphenylyl)-N-3-isoxazolyl-2-oxo-1,2-dihydro-6-quinolinesulfonamide]", "values": [
      {"measurement": "IC50", "value": 11, "unit": "nM"}
    ]},
    {"compound": "COc1nc(Oc2ccc(F)c(F)c2)c(Cl)cc1-n1c(=O)ccc2cc(S(=O)(=O)Nc3ccon3)ccc21", "note": "[Example 1222, 1-(5-chloro-6-(3,4-difluorophenoxy)-2-methoxy-3-pyridinyl)-N-3-isoxazolyl-2-oxo-1,2-dihydro-6-quinolinesulfonamide]", "values": [
      {"measurement": "IC50", "value": 903, "unit": "nM"}
    ]},
    {"compound": "COc1cc(-c2ccc3c(c2)OCC3)ccc1-n1c(=O)ccc2cc(S(=O)(=O)Nc3ccon3)ccc21", "note": "[Example 809, 1-(4-(2,3-dihydro-1-benzofuran-6-yl)-2-methoxyphenyl)-N-3-isoxazolyl-2-oxo-1,2-dihydro-6-quinolinesulfonamide]", "values": [
      {"measurement": "IC50", "setting": "in-vitro Nav 1.7 PX data", "value": 122, "unit": "nM"}
    ]},
    {"compound": "COc1cc(-c2ccc(F)c(C#N)c2)ccc1-n1c(=O)ccc2cc(S(=O)(=O)Nc3ccon3)ccc21", "note": "[Example 1020, 1-(3′-cyano-4′-fluoro-3-methoxy-4-biphenylyl)-N-3-isoxazolyl-2-oxo-1,2-dihydro-6-quinolinesulfonamide]", "values": [
      {"measurement": "IC50", "setting": "in-vitro Nav 1.7 PX data", "value": 82, "unit": "nM"}
    ]},
    {"compound": "O=c1ccc2cc(S(=O)(=O)Nc3ccon3)ccc2n1-c1ccc(-c2cc(F)cc(F)c2)cc1C1CC1", "note": "(atropisomer, axis not shown; (P)) [Example 629, (P)-1-(3-cyclopropyl-3′,5′-difluoro-4-biphenylyl)-N-3-isoxazolyl-2-oxo-1,2-dihydro-6-quinolinesulfonamide]", "values": [
      {"measurement": "IC50", "setting": "[1]", "value": 127, "unit": "nM"}
    ]},
    {"compound": "COc1ccc(C#N)cc1-c1cc(OC)c(-n2c(=O)ccc3cc(S(=O)(=O)Nc4ccon4)ccc32)cc1F", "note": "[Example 718, 1-(5′-cyano-2-fluoro-2′,5-dimethoxy-4-biphenylyl)-N-3-isoxazolyl-2-oxo-1,2-dihydro-6-quinolinesulfonamide]", "values": [
      {"measurement": "IC50", "setting": "in-vitro Nav 1.7 PX data", "value": 153, "unit": "nM"}
    ]},
    {"compound": "COc1cc(-c2cccc(F)c2Cl)ccc1-n1c(=O)ccc2cc(S(=O)(=O)Nc3ccon3)ccc21", "note": "[Example 1058, 1-(2′-chloro-3′-fluoro-3-methoxy-4-biphenylyl)-N-3-isoxazolyl-2-oxo-1,2-dihydro-6-quinolinesulfonamide]", "values": [
      {"measurement": "IC50", "setting": "[1]", "value": 38, "unit": "nM"}
    ]},
    {"compound": "COc1cc(-c2cc(F)cc(C(F)F)c2)ccc1-n1c(=O)ccc2cc(S(=O)(=O)Nc3ccon3)ccc21", "note": "[Example 1068, 1-(3′-(difluoromethyl)-5′-fluoro-3-methoxy-4-biphenylyl)-N-3-isoxazolyl-2-oxo-1,2-dihydro-6-quinolinesulfonamide]", "values": [
      {"measurement": "IC50", "setting": "[1]", "value": 75, "unit": "nM"}
    ]},
    {"compound": "COc1ccc(-c2cccc(Cl)c2C)cc1-n1c(=O)ccc2cc(S(=O)(=O)Nc3ccon3)ccc21", "note": "[Example 891, 1-(3′-chloro-4-methoxy-2′-methyl-3-biphenylyl)-N-3-isoxazolyl-2-oxo-1,2-dihydro-6-quinolinesulfonamide]", "values": [
      {"measurement": "IC50", "setting": "in-vitro Nav 1.7 PX data", "value": 20, "unit": "nM"}
    ]},
    {"compound": "COc1cc(F)cc(-c2cc(OC)c(-n3c(=O)ccc4cc(S(=O)(=O)Nc5ccon5)ccc43)cc2F)c1", "note": "[Example 710, 1-(2,3′-difluoro-5,5′-dimethoxy-4-biphenylyl)-N-3-isoxazolyl-2-oxo-1,2-dihydro-6-quinolinesulfonamide]", "values": [
      {"measurement": "IC50", "setting": "in-vitro Nav 1.7 PX data", "value": 14, "unit": "nM"}
    ]},
    {"compound": "COc1cc(-c2ccc(Cl)cn2)c(F)cc1-n1c(=O)ccc2cc(S(=O)(=O)Nc3ccon3)ccc21", "note": "[Example 800, 1-(4-(5-chloro-2-pyridinyl)-5-fluoro-2-methoxyphenyl)-N-3-isoxazolyl-2-oxo-1,2-dihydro-6-quinolinesulfonamide]", "values": [
      {"measurement": "IC50", "setting": "in-vitro Nav 1.7 PX data", "value": 253, "unit": "nM"}
    ]},
    {"compound": "COc1cc(-c2ccc(Cl)cc2)c(F)cc1-n1c(=O)ccc2cc(S(=O)(=O)Nc3ccc(F)cn3)ccc21", "note": "(atropisomer, axis not shown; (P)) [Example 1163, (P)-1-(4′-chloro-2-fluoro-5-methoxy-4-biphenylyl)-N-(5-fluoro-2-pyridinyl)-2-oxo-1,2-dihydro-6-quinolinesulfonamide]", "values": [
      {"measurement": "IC50", "setting": "in-vitro Nav 1.7 PX data, Table 4", "value": 159, "unit": "nM"}
    ]},
    {"compound": "COc1cc(-c2ccc(C)c(F)c2)c(F)cc1-n1c(=O)ccc2cc(S(=O)(=O)Nc3cc(C)ncn3)ccc21", "note": "[Example 1129, 1-(2,3′-difluoro-5-methoxy-4′-methyl-4-biphenylyl)-N-(6-methyl-4-pyrimidinyl)-2-oxo-1,2-dihydro-6-quinolinesulfonamide]", "values": [
      {"measurement": "IC50", "setting": "in-vitro Nav 1.7 PX data", "value": 80, "unit": "nM"}
    ]},
    {"compound": "COc1nc(-c2cccc(C)c2)c(Cl)cc1-n1c(=O)ccc2cc(S(=O)(=O)Nc3ccon3)ccc21", "note": "[Example 1088, 1-(5-chloro-2-methoxy-6-(3-methylphenyl)-3-pyridinyl)-N-3-isoxazolyl-2-oxo-1,2-dihydro-6-quinolinesulfonamide]", "values": [
      {"measurement": "IC50", "setting": "in-vitro Nav 1.7 PX data", "value": 47, "unit": "nM"}
    ]}
  ]
}
